{
  "source": "paper PMC7180948",
  "about": "“New Insights into 4-Anilinoquinazolines as Inhibitors of Cardiac Troponin I–Interacting Kinase (TNNi3K)” (Molecules, 2020)",
  "experiment_in_all_cases": "biochemical",
  "design_in_all_cases": "KINOMEscan competition binding panel (Eurofins DiscoverX), single concentration, percent inhibition",
  "conditions_in_all_cases": "read-out: 15 at 1 µM % inhibition",
  "key": {"HIPK4": {"target": "HIPK4 (Homo sapiens, UniProt Q8NE63)", "experimental": "(§1) KinomeScan® Assay on 7 and 15 was performed as previously described by EuroFins DiscoverX [24]. GSK114 (7) and 15 were submitted for a KINOMEscan® assay to explore the selectivity profile across >400 human kinases at a compound concentration of 1 µM. […] GSK114 (7) is a narrow-spectrum TNNi3K inhibitor but has some potent off-targets including GAK which has been previously reported for this chemotype. […] If utilized together this set of compounds could be useful to investigate TNNi3K biology."}, "AURKA": {"target": "AURKA (Homo sapiens, UniProt O14965)", "sequence (O14965 whole entry)": "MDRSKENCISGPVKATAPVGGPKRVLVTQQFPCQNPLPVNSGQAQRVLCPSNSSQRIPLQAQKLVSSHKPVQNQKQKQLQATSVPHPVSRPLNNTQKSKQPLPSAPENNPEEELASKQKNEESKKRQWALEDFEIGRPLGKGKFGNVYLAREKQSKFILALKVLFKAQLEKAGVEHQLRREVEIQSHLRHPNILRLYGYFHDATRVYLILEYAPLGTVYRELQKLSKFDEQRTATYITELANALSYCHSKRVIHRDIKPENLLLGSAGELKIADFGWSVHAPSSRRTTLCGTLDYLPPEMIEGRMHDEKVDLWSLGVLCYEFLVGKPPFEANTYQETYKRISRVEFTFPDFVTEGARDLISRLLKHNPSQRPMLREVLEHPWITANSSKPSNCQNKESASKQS", "experimental": "as §1"}, "LZK": {"target": "T1, LZK (Homo sapiens, UniProt O43283)", "T1 construct": "gene MAP3K13", "experimental": "as §1"}, "YSK1": {"target": "T2, YSK1 (Homo sapiens, UniProt O00506)", "T2 construct": "gene STK25", "experimental": "as §1"}, "EPHA2": {"target": "EPHA2 (Homo sapiens, UniProt P29317)", "sequence (P29317 whole entry)": "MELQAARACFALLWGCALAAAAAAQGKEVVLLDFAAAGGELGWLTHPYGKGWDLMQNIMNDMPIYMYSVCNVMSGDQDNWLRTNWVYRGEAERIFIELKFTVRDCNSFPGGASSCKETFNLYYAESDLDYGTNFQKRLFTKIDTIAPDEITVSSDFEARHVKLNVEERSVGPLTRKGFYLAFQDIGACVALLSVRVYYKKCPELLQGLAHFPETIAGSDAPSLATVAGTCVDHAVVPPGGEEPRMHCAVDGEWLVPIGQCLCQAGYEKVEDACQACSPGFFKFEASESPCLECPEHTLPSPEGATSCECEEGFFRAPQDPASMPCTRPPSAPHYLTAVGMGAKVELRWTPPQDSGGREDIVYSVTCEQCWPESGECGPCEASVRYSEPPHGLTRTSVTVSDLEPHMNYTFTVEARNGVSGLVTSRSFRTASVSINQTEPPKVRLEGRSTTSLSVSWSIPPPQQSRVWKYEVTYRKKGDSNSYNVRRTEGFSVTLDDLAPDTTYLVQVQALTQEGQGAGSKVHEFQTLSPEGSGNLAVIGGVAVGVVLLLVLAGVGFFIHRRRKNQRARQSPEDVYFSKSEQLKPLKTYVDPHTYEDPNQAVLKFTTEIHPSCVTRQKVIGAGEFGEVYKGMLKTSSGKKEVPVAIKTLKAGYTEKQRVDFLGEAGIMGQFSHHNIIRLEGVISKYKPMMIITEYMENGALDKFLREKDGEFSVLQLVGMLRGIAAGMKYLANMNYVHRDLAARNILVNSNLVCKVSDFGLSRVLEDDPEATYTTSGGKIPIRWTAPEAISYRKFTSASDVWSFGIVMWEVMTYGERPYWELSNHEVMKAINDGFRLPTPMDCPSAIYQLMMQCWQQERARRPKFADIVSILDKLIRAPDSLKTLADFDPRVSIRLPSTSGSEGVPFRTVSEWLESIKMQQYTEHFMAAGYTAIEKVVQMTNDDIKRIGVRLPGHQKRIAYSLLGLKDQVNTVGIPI", "experimental": "as §1"}, "DCAMKL3": {"target": "T3, DCAMKL3 (Homo sapiens, UniProt Q9C098)", "T3 construct": "gene DCLK3", "experimental": "as §1"}, "PRKD2": {"target": "PRKD2 (Homo sapiens, UniProt Q9BZL6)", "sequence (Q9BZL6 whole entry)": "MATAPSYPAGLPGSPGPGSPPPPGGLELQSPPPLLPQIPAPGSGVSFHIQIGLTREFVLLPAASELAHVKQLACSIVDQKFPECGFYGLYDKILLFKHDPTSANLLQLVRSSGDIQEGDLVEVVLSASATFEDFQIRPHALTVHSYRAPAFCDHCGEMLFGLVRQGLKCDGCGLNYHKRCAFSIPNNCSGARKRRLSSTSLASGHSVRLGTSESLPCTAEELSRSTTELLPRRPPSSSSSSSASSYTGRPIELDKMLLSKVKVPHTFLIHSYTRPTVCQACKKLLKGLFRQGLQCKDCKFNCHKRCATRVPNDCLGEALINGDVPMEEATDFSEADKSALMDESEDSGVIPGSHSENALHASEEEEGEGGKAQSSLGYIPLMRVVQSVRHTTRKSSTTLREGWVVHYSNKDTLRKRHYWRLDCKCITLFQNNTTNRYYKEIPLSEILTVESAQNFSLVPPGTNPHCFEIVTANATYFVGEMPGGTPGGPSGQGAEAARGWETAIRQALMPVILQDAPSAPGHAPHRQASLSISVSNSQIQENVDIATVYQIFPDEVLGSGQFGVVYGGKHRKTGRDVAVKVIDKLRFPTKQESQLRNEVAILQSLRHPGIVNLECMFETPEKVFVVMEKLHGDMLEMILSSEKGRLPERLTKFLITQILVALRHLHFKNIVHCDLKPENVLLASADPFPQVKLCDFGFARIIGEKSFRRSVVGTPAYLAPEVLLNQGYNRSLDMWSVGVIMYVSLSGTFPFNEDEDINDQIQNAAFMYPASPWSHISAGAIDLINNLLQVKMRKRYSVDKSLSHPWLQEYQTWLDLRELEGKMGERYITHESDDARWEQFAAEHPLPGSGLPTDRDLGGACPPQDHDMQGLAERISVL", "experimental": "as §1"}, "PKN2": {"target": "PKN2 (Homo sapiens, UniProt Q16513)", "experimental": "as §1"}, "CDK9": {"target": "CDK9 (Homo sapiens, UniProt P50750)", "experimental": "as §1"}, "LTK": {"target": "LTK (Homo sapiens, UniProt P29376)", "experimental": "as §1"}, "CAMK1G": {"target": "CAMK1G (Homo sapiens, UniProt Q96NX5)", "sequence (Q96NX5 whole entry)": "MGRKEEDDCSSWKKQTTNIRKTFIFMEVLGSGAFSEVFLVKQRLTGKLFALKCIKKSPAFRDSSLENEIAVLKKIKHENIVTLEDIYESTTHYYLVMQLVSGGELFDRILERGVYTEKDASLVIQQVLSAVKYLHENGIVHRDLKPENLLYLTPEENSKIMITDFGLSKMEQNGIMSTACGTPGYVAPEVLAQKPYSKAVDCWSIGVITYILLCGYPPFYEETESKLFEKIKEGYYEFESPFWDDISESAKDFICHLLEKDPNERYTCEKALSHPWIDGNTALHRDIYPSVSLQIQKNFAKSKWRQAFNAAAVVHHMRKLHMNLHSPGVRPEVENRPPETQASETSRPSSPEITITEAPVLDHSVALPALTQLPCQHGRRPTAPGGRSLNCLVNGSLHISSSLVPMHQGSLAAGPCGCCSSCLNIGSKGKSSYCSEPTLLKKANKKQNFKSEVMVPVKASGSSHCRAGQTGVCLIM", "experimental": "as §1"}, "SGK": {"target": "T4, SGK (Homo sapiens, UniProt O00141)", "T4 construct": "gene SGK1", "T4 sequence (O00141 whole entry)": "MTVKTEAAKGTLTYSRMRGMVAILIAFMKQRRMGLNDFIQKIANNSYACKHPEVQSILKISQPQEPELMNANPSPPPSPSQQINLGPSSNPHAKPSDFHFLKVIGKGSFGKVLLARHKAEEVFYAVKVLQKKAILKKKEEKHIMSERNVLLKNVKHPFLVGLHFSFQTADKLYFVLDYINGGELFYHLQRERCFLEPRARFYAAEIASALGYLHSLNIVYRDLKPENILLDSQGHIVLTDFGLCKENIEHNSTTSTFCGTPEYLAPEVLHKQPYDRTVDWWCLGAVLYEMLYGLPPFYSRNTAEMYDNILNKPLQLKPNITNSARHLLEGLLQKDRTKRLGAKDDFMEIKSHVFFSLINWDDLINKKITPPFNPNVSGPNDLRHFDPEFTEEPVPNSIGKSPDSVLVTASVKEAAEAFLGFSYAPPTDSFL", "experimental": "as §1"}, "CSNK1D": {"target": "CSNK1D (Homo sapiens, UniProt P48730)", "experimental": "as §1"}, "YANK2": {"target": "T5, YANK2 (Homo sapiens, UniProt Q9NY57)", "T5 construct": "gene STK32B", "experimental": "as §1"}, "[1]": {"target": "T6, RPS6KA4(Kin.Dom.2-C-terminal) (Homo sapiens, UniProt O75676)", "T6 construct": "Kin.Dom.2-C-terminal", "T6 sequence (O75676 whole entry)": "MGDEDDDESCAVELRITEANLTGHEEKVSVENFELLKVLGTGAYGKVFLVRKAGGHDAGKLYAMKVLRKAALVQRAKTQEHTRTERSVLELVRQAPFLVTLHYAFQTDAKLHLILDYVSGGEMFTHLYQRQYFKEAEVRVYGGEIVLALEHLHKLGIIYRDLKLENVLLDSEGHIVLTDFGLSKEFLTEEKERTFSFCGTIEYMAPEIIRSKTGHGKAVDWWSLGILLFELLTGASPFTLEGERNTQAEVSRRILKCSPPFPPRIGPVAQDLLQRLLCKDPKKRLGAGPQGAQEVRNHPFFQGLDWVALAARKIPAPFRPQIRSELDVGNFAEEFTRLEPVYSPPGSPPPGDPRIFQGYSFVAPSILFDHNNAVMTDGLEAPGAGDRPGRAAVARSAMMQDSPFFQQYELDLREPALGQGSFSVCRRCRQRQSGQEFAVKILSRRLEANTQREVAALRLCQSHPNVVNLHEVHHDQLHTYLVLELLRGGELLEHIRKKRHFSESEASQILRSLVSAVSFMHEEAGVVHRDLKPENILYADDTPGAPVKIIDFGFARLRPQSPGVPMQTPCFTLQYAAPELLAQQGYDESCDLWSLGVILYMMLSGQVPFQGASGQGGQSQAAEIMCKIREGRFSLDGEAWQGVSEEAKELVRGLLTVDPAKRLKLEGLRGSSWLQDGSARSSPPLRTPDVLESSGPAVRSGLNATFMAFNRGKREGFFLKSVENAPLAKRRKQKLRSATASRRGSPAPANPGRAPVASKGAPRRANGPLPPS", "experimental": "as §1"}, "IKK-epsilon": {"target": "T7, IKK-epsilon (Homo sapiens, UniProt Q14164)", "T7 construct": "gene IKBKE", "experimental": "as §1"}, "PIK3C2B": {"target": "PIK3C2B (Homo sapiens, UniProt O00750)", "experimental": "as §1"}, "RAF1": {"target": "RAF1 (Homo sapiens, UniProt P04049)", "experimental": "as §1"}, "NLK": {"target": "NLK (Homo sapiens, UniProt Q9UBE8)", "experimental": "as §1"}, "DLK": {"target": "T8, DLK (Homo sapiens, UniProt Q12852)", "T8 construct": "gene MAP3K12", "experimental": "as §1"}, "ERK3": {"target": "T9, ERK3 (Homo sapiens, UniProt Q16659)", "T9 construct": "gene MAPK6", "experimental": "as §1"}, "MLK2": {"target": "T10, MLK2 (Homo sapiens, UniProt Q02779)", "T10 construct": "gene MAP3K10", "T10 sequence (Q02779 whole entry)": "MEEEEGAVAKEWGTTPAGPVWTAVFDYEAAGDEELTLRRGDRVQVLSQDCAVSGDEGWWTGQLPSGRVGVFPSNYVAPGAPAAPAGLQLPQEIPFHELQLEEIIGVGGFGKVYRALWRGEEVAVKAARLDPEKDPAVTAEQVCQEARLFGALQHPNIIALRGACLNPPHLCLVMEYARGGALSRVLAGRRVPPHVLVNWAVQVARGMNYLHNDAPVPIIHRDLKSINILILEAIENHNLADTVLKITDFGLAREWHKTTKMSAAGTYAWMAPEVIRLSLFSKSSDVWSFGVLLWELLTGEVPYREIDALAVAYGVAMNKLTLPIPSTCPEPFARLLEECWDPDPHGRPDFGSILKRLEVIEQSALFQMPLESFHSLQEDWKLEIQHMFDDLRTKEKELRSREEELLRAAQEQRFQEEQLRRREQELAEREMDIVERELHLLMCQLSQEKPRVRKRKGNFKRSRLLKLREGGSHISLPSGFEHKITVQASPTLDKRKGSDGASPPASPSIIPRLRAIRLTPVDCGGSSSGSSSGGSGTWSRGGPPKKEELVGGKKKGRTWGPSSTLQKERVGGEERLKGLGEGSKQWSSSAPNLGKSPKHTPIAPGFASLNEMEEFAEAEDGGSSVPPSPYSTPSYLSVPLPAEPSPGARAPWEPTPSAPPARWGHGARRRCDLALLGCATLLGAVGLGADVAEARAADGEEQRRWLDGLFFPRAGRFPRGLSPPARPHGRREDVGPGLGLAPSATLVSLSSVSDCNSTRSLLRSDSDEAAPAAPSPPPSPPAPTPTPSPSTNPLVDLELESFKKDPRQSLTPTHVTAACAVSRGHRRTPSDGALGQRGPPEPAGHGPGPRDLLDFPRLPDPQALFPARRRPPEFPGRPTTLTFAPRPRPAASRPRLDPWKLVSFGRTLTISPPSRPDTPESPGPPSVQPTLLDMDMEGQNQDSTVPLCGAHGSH", "experimental": "as §1"}, "MAPKAPK2": {"target": "MAPKAPK2 (Homo sapiens, UniProt P49137)", "experimental": "as §1"}, "[2]": {"target": "T11, RPS6KA5(Kin.Dom.2-C-terminal) (Homo sapiens, UniProt O75582)", "T11 construct": "Kin.Dom.2-C-terminal", "experimental": "as §1"}},
  "data": [
    {"smiles": "CNS(=O)(=O)c1ccc(N(C)C)c(Nc2nc(C)nc3cc(OC)c(OC)cc23)c1", "note": "[compound 15, 3-((6,7-dimethoxy-2-methylquinazolin-4-yl)amino)-4-(dimethylamino)-N-methylbenzenesulfonamide]", "values": [
      {"measurement": "inhibition at 1 µM", "setting": "HIPK4", "value": 0, "unit": "%"},
      {"measurement": "inhibition at 1 µM", "setting": "AURKA", "value": 14, "unit": "%"},
      {"measurement": "inhibition at 1 µM", "setting": "LZK", "value": 16, "unit": "%"},
      {"measurement": "inhibition at 1 µM", "setting": "YSK1", "value": 13, "unit": "%"},
      {"measurement": "inhibition at 1 µM", "setting": "EPHA2", "value": 0, "unit": "%"},
      {"measurement": "inhibition at 1 µM", "setting": "DCAMKL3", "value": 6, "unit": "%"},
      {"measurement": "inhibition at 1 µM", "setting": "PRKD2", "value": 13, "unit": "%"},
      {"measurement": "inhibition at 1 µM", "setting": "PKN2", "value": 0, "unit": "%"},
      {"measurement": "inhibition at 1 µM", "setting": "CDK9", "value": 0, "unit": "%"},
      {"measurement": "inhibition at 1 µM", "setting": "LTK", "value": 12, "unit": "%"},
      {"measurement": "inhibition at 1 µM", "setting": "CAMK1G", "value": 0, "unit": "%"},
      {"measurement": "inhibition at 1 µM", "setting": "SGK", "value": 39, "unit": "%"},
      {"measurement": "inhibition at 1 µM", "setting": "CSNK1D", "value": 0, "unit": "%"},
      {"measurement": "inhibition at 1 µM", "setting": "YANK2", "value": 0, "unit": "%"},
      {"measurement": "inhibition at 1 µM", "setting": "[1]", "value": 16, "unit": "%"},
      {"measurement": "inhibition at 1 µM", "setting": "IKK-epsilon", "value": 0, "unit": "%"},
      {"measurement": "inhibition at 1 µM", "setting": "PIK3C2B", "value": 71, "unit": "%"},
      {"measurement": "inhibition at 1 µM", "setting": "RAF1", "value": 0, "unit": "%"},
      {"measurement": "inhibition at 1 µM", "setting": "NLK", "value": 0, "unit": "%"},
      {"measurement": "inhibition at 1 µM", "setting": "DLK", "value": 12, "unit": "%"},
      {"measurement": "inhibition at 1 µM", "setting": "ERK3", "value": 18, "unit": "%"},
      {"measurement": "inhibition at 1 µM", "setting": "MLK2", "value": 0, "unit": "%"},
      {"measurement": "inhibition at 1 µM", "setting": "MAPKAPK2", "value": 0, "unit": "%"},
      {"measurement": "inhibition at 1 µM", "setting": "[2]", "value": 8, "unit": "%"}
    ]}
  ]
}
